For the experiment, the target named is recombinant 17β-HSD13 protein (Homo sapiens (Human), UniProt Q7Z5P4). The experiment is described as follows: 17β-HSD13 biochemical assay (NAD+/NADH Glo chemiluminescence). The following applies: 17β-HSD13 50 nM, NAD+ 10 mM, β-estradiol 20 μM, 2 hours room temperature. Here is the method:
17β-HSD13 biochemical assays are generically described in patents WO 2022/020730, WO 2021/003295, and WO 2023/023310. More specifically, recombinant 17β-HSD13 protein was assayed in a buffer containing 200 mM Tris pH 7.5, 0.01% Triton X-100, and 0.02% BSA into a 384-well assay plate. Compounds were incubated with 17β-HSD13 (final 50 nM) and NAD+ (final 10 mM) at room temperature for 1 h prior to substrate addition. The assay reaction was then initiated by addition of β-estradiol (final 20 μM), and the reaction mixture was incubated for 2 hours at room temperature. Product formation was detected with chemiluminescence by adding equal volume of NAD+/NADH Glo reagent (Promega, #G9062) and read on a PHERAstar microplate reader (BMG LABTECH). IC50 values were determined with GraphPad Prism®, where log-transformed concentration values and the inhibition data were fitted to a four-parameter logistic equation. Y=Bottom+(Top−Bottom)/(1+10^((Log IC50−X)*HillSlope)). The original, % control, or % inhibition data are represented by Y along with their minimal (Bottom) and maximal (Top) values. The inhibitor concentration is represented by X, IC50 is the concentration at 50% maximal value, and Hill Slope is the slope factor.

Each structure is given as a SMILES string.

The values that follow come from US20250026745A1 (Bluejay Therapeutics, Inc., priority 2023, published 2025).

The term IC50 denotes the concentration needed to halve the response being measured.

Sequence of recombinant 17β-HSD13 protein (Q7Z5P4 20-300): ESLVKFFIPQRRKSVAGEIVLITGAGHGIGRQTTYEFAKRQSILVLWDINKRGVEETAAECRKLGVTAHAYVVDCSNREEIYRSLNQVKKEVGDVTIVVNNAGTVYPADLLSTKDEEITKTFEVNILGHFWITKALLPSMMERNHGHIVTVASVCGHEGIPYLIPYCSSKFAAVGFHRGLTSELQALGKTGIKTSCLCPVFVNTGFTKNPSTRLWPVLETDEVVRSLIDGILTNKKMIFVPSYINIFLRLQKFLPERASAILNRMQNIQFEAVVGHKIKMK

In the case of `O=C1N(CC(F)(F)F)C(=O)C2(CC2)N1Cc1nnc(-c2nc(C(F)(F)F)c(F)c(O)c2F)s1` [Compound I-58, 4-((5-(3,5-difluoro-4-hydroxy-6-(trifluoromethyl)pyridin-2-yl)-1,3,4-thiadiazol-2-yl)methyl)-6-(2,2,2-trifluoroethyl)-4,6-diazaspiro[2.4]heptane-5,7-dione], the concentration for half-maximal inhibition (IC50) stood at 293 nM.

For `O=C1N(CC(F)(F)F)C(=O)C2(CC2)N1Cc1nnc(-c2cncc(O)c2Cl)s1` [Compound I-18, 4-((5-(4-chloro-5-hydroxypyridin-3-yl)-1,3,4-thiadiazol-2-yl)methyl)-6-(2,2,2-trifluoroethyl)-4,6-diazaspiro[2.4]heptane-5,7-dione], the IC50 was determined as 193 nM.

Turning to `O=C1N(CC(F)(F)F)C(=O)C2(CC2)N1Cc1nnc(-c2ccc(Cl)c(O)c2Cl)s1` [Compound I-17, 4-((5-(2,4-dichloro-3-hydroxyphenyl)-1,3,4-thiadiazol-2-yl)methyl)-6-(2,2,2-trifluoroethyl)-4,6-diazaspiro[2.4]heptane-5,7-dione], the IC50 turned out to be 106 nM.

Regarding `CCN1C(=O)N(Cc2nnc(-c3ccc(Cl)c(O)c3F)s2)C2(CC2)C1=O` [Compound I-23, 4-[[5-(4-chloro-2-fluoro-3-hydroxy-phenyl)-1,3,4-thiadiazol-2-yl]methyl]-6-ethyl-4,6-diazaspiro[2.4]heptane-5,7-dione], the concentration for half-maximal inhibition (IC50) stood at 78.8 nM.

Regarding `CCN1C(=O)N(Cc2nnc(-c3ccc(F)c(O)c3F)s2)C(C)(C)C1=O` [Compound I-8, 1-((5-(2,4-difluoro-3-hydroxyphenyl)-1,3,4-thiadiazol-2-yl)methyl)-3-ethyl-5,5-dimethylimidazolidine-2,4-dione], the half-maximal inhibitory concentration (IC50) stood at 90.8 nM.

For `O=C1NC(=O)C2(CC2)N1Cc1nnc(-c2ccc(F)c(O)c2F)s1` [Compound I-27, 4-((5-(2,4-difluoro-3-hydroxyphenyl)-1,3,4-thiadiazol-2-yl)methyl)-4,6-diazaspiro[2.4]heptane-5,7-dione], the IC50 amounted to 355 nM.

As to `CC(C)(C)N1C(=O)N(Cc2nnc(-c3ccc(F)c(O)n3)s2)C2(CC2)C1=O` [Compound I-81, 6-(tert-butyl)-4-((5-(5-fluoro-6-hydroxypyridin-2-yl)-1,3,4-thiadiazol-2-yl)methyl)-4,6-diazaspiro[2.4]heptane-5,7-dione], the IC50 came to 602 nM.

With `O=C1N(Cc2ccc(F)cc2F)C(=O)C2(CC2)N1Cc1nnc(-c2ccc(F)c(O)c2Cl)s1` [Compound I-33, 4-((5-(2-chloro-4-fluoro-3-hydroxyphenyl)-1,3,4-thiadiazol-2-yl)methyl)-6-(2,4-difluorobenzyl)-4,6-diazaspiro[2.4]heptane-5,7-dione], the IC50 was determined as 8.83 nM.

For the compound `C[C@@H](c1ccccc1)N1C(=O)N(Cc2nnc(-c3ccc(F)c(O)n3)s2)C2(CC2)C1=O` [Compound I-80, (S)-4-((5-(5-fluoro-6-hydroxypyridin-2-yl)-1,3,4-thiadiazol-2-yl)methyl)-6-(1-phenylethyl)-4,6-diazaspiro[2.4]heptane-5,7-dione], the IC50 came to 76.8 nM.

Turning to `O=C1N(c2ccccc2)C(=O)C2(CC2)N1Cc1nnc(-c2ccc(F)c(O)c2F)s1` [Compound I-85, 4-((5-(2,4-difluoro-3-hydroxyphenyl)-1,3,4-thiadiazol-2-yl)methyl)-6-phenyl-4,6-diazaspiro[2.4]heptane-5,7-dione], the 50% inhibitory concentration (IC50) turned out to be 13.2 nM.

Turning to `CC(C)(C)N1C(=O)N(Cc2nnc(-c3ccc(F)c(O)c3F)s2)C2(CC2)C1=O` [Compound I-84, 6-(tert-butyl)-4-((5-(2,4-difluoro-3-hydroxyphenyl)-1,3,4-thiadiazol-2-yl)methyl)-4,6-diazaspiro[2.4]heptane-5,7-dione], the half-inhibitory concentration (IC50) worked out at 4.07 nM.

As for `O=C1N(Cc2ccccc2)C(=O)C2(CC2)N1Cc1nnc(-c2ccc(F)c(O)n2)s1` [Compound I-74, 6-benzyl-4-((5-(5-fluoro-6-hydroxypyridin-2-yl)-1,3,4-thiadiazol-2-yl)methyl)-4,6-diazaspiro[2.4]heptane-5,7-dione], the IC50 was determined as 147 nM.

Consider `O=C1N(Cc2ccccc2)C(=O)C2(CC2)N1Cc1nnc(-c2ccc(Cl)c(O)c2Cl)s1` [Compound I-36, 6-benzyl-4-((5-(2,4-dichloro-3-hydroxyphenyl)-1,3,4-thiadiazol-2-yl)methyl)-4,6-diazaspiro[2.4]heptane-5,7-dione], for which the concentration for half-maximal inhibition (IC50) is 38.5 nM.

As for `CCN1C(=O)N(Cc2nnc(-c3cc(C(F)(F)F)cc(O)c3Cl)s2)C2(CC2)C1=O` [Compound I-13, 4-((5-(2-chloro-3-hydroxy-5-(trifluoromethyl)phenyl)-1,3,4-thiadiazol-2-yl)methyl)-6-ethyl-4,6-diazaspiro[2.4]heptane-5,7-dione], the IC50 was 13.8 ± 2.2 nM.

Regarding `O=C1N(CCC(F)(F)F)C(=O)C2(CC2)N1Cc1nnc(-c2ccc(F)c(O)c2F)s1` [Compound I-29, 4-((5-(2,4-difluoro-3-hydroxyphenyl)-1,3,4-thiadiazol-2-yl)methyl)-6-(3,3,3-trifluoropropyl)-4,6-diazaspiro[2.4]heptane-5,7-dione], the IC50 amounted to 18.6 nM.

For `O=C1N(CC(F)(F)F)C(=O)C2(CC2)N1Cc1nnc(-c2cc(C(F)(F)F)c(F)c(O)c2F)s1` [Compound I-56, 4-((5-(2,4-difluoro-3-hydroxy-5-(trifluoromethyl)phenyl)-1,3,4-thiadiazol-2-yl)methyl)-6-(2,2,2-trifluoroethyl)-4,6-diazaspiro[2.4]heptane-5,7-dione], the half-maximal inhibitory concentration (IC50) is 12.5 nM.

Consider `O=C1N([C@@H](c2ccc(F)cc2F)C(F)(F)F)C(=O)C2(CC2)N1Cc1nnc(-c2ccc(F)c(O)c2F)s1` [Compound I-90B, (S)-4-((5-(2,4-difluoro-3-hydroxyphenyl)-1,3,4-thiadiazol-2-yl)methyl)-6-(1-(2,4-difluorophenyl)-2,2,2-trifluoroethyl)-4,6-diazaspiro[2.4]heptane-5,7-dione], for which the IC50 is 6.53 nM.

With `COc1ccc(CN2C(=O)N(Cc3nnc(-c4ccc(F)c(O)c4Cl)s3)C3(CC3)C2=O)c(F)c1` [Compound I-44, 4-((5-(2-chloro-4-fluoro-3-hydroxyphenyl)-1,3,4-thiadiazol-2-yl)methyl)-6-(2-fluoro-4-methoxybenzyl)-4,6-diazaspiro[2.4]heptane-5,7-dione], the IC50 is 7.38 nM.

On to `O=C1N(CC(F)(F)F)C(=O)C2(CC2)N1Cc1nnc(-c2ccc(F)c(O)n2)s1` [Compound I-73, 4-((5-(5-fluoro-6-hydroxypyridin-2-yl)-1,3,4-thiadiazol-2-yl)methyl)-6-(2,2,2-trifluoroethyl)-4,6-diazaspiro[2.4]heptane-5,7-dione], for which the IC50 was found to be 1390 nM.

In the case of `CCN1C(=O)N(Cc2nnc(-c3ccc(F)c(O)n3)s2)C2(CC2)C1=O` [Compound I-75, 6-ethyl-4-((5-(5-fluoro-6-hydroxypyridin-2-yl)-1,3,4-thiadiazol-2-yl)methyl)-4,6-diazaspiro[2.4]heptane-5,7-dione], the 50% inhibitory concentration (IC50) stood at 1360 nM.

Consider `CC[C@H](C)N1C(=O)N(Cc2nnc(-c3ccc(F)c(O)n3)s2)C2(CC2)C1=O` [Compound I-78, (S)-6-(sec-butyl)-4-((5-(5-fluoro-6-hydroxypyridin-2-yl)-1,3,4-thiadiazol-2-yl)methyl)-4,6-diazaspiro[2.4]heptane-5,7-dione], for which the half-inhibitory concentration (IC50) stood at 934 nM.
